Assay results published in patent US20240336972A1, “METHODS FOR SELECTING MELANOMA PATIENTS FOR THERAPY AND METHODS OF REDUCING OR PREVENTING MELANOMA METASTASIS” (Oregon Health & Science University, priority 2021, published 2024).
“Also recorded” adds a separate entry of the source.

What was measured:
[1] = system: melanocytic atypia and melanoma initiation markers; conditions: in vivo; cited from earlier work
A375 cells = conditions: cited from earlier work
melanoma metastasis = conditions: mouse, in vivo; cited from earlier work
A375 melanoma cells = experiment: RNA-seq of A375 melanoma cells before and after treatment with fluvastatin; assay type: cell-based, human
Protocol: Characterization of the transcriptome in human melanoma cells exposed to fluvastatin The effect of statins on the melanoma transcriptome was characterized using a well-established melanoma cell line. Human melanoma cell line A375 (a generous gift of Dr John Letterio, Case Western Reserve University, Cleveland, OH) were maintained in standard growth media consisting of RPMI 1640 (Thermo Fisher Scientific, Waltham, MA) b 10% fetal bovine serum p 2 mM glutamine and grown in a 5% carbon dioxide-humidified atmosphere at 37° C. Cells were tested biannually and shown to be negative for mycoplasma contamination using the Mycoplasma Detection kit (MycoAlert, Lonza, Basel, Switzerland). For gene expression studies, A375 cells were seeded at 2.5E6 per […] and allowed to adhere overnight. Test samples (in triplicate) were treated with fluvastatin (purchased from Millipore Sigma, St. […] Untreated control cells grown side by side were used as the reference control for differential expression analysis. RNA was quantified using the Qubit Broad Range RNA kit (catalog #Q10210; Thermo Fisher Scientific) and diluted to 50 ng/ml for RNA-seq.
Sequencing reads generated from the Illumina HiSeq platform (Illumina, San Diego, CA) were assessed for quality and trimmed for adapter sequences using TrimGalore!, version 0.4.2 (Babraham Bioinformatics, Cambridge, United Kingdom), a wrapper script for FastQC and cutadapt. Reads that passed quality control were subsequently aligned to the human reference genome (GRCh38) using STAR aligner, version 2.5.1. Sequence alignment was guided using the GENCODE annotation for hg38. The aligned reads were analyzed for differential expression using Cufflinks, version 2.2.1, an RNA-seq analysis package that reports the fragments per kilobase of exon per million mapped for each gene. A differential analysis report was generated using the cuffdiff command performed in a pairwise manner for each group. Differential genes were identified using a significance cutoff of q<0.05. The differential expression profiles were then used as input in iPathwayGuide (Advaita Bioinformatics, Ann Arbor, MI) for pathway analysis.

[2] = fluvastatin 3 µM, 24 hours, vs untreated control
[3] = fluvastatin 3 µM, 24 hours, vs untreated control, SkylineDx profile gene

CC[C@H](C)C(=O)O[C@H]1C[C@@H](C)C=C2C=C[C@H](C)[C@H](CC[C@@H]3C[C@@H](O)CC(=O)O3)[C@H]21 [lovastatin, Lovastatin]
melanocytic atypia or other melanoma initiation markers [1]: did not identify any significant decreases

CC(C)c1c(C(=O)Nc2ccccc2)c(-c2ccccc2)c(-c2ccc(F)cc2)n1CC[C@@H](O)C[C@@H](O)CC(=O)O [atorvastatin, Atorvastatin]
migration and invasion (A375 cells; Matrigel transwell assay): decreasing | isoprenylation of RhoC (A375 cells): decreases | metastasis (melanoma metastasis): decreasing

CC(C)n1c(/C=C/C(O)CC(O)CC(=O)O)c(-c2ccc(F)cc2)c2ccccc21 (centres unmarked) [Fluvastatin]
expression of genes included in melanoma prognostic tests (DecisionDx-Melanoma, Merlin Assay) (A375 melanoma cells): significantly altered | expression of genes used in a diagnostic test that distinguishes melanoma from nevi (myPath Melanoma) (A375 melanoma cells): did not alter; also recorded: did not affect | effect on the metastatic gene expression profile of melanoma (A375 melanoma cells; 3 μM concentration for 24 hours): effectively reverses | SLC16A1 fold change (A375 melanoma cells; after fluvastatin exposure, q=0.062, not statistically significant): 0.797 | BUB1 Log2 Fold Change (A375 melanoma cells; [2]): −0.7319 | CCND3 Log2 Fold Change (A375 melanoma cells; [2]): −0.7194 | CDKN1A Log2 Fold Change (A375 melanoma cells; [2]): 1.3053 | CDKN1C Log2 Fold Change (A375 melanoma cells; [2]): 3.2643 | CUL1 Log2 Fold Change (A375 melanoma cells; [2]): −0.3847 | FGF2 Log2 Fold Change (A375 melanoma cells; [2]): −0.5791 | KIFC1 Log2 Fold Change (A375 melanoma cells; [2]): −0.4213 | MAGEA1 Log2 Fold Change (A375 melanoma cells; [2]): −0.4357 | MAGEA3 Log2 Fold Change (A375 melanoma cells; [2]): −0.4574 | MAGEA4 Log2 Fold Change (A375 melanoma cells; [2]): −0.2919 | MAGEA6 Log2 Fold Change (A375 melanoma cells; [2]): −0.4529 | MAGED1 Log2 Fold Change (A375 melanoma cells; [2]): 0.7222 | S1PR5 Log2 Fold Change (A375 melanoma cells; [2]): −1.3212 | SOX4 Log2 Fold Change (A375 melanoma cells; [2]): −0.4139 | TGFBRAP1 Log2 Fold Change (A375 melanoma cells; [2]): −0.3389 | AQP3 Log2 Fold Change (A375 melanoma cells; fluvastatin 3 µM, 24 hours, vs untreated control, Castle Biosciences profile gene): 3.2162 | K14 Log2 Fold Change (A375 melanoma cells; fluvastatin 3 µM, 24 hours, vs untreated control, Castle Biosciences profile gene (keratin 14)): 2.8530 | CXCL8 Log2 Fold Change (A375 melanoma cells; [3]): 0.8218 | ITGB3 Log2 Fold Change (A375 melanoma cells; [3]): 0.5304 | PLAT Log2 Fold Change (A375 melanoma cells; [3]): 1.7389 | differentially expressed genes identified (A375 melanoma cells; significance cutoff q<0.05): 2,615
